# According to patent US7427615B2, “3-substituted-4-pyrimidone derivatives” (Mitsubishi Pharma Corporation, priority 2001, dated 2008):
# Target: T1, bovine cerebral TPK1 (Bos taurus, UniProt A0A3Q1MT31)
# T1 construct: from tissue; host or cells: bovine brain (cerebrum)
# Test: Inhibitory activity against P-GS1 phosphorylation by bovine cerebral TPK1
# Format: biochemical
# Conditions: 41.7 μM [γ-32P]ATP, 25° C., 2 hours, pH 6.5
# Protocol: Test Example: Inhibitory activity of the medicament of the present invention against P-GS1 phosphorylation by bovine cerebral TPK1
# A mixture containing 100 mM MES-sodium hydroxide (pH 6.5), 1 mM magnesium acetate, 0.5 mM EGTA, 5 mM β-mercaptoethanol, 0.02% Tween 20, 10% glycerol, 12 μg/ml P-GS1, 41.7 μM [Υ-^32P] ATP (68 kBq/ml), bovine cerebral TPK1 and a compound shown in Table (a final mixture contained 1.7% DMSO deriving from a solution of a test compound prepared in the presence of 10% DMSO) was used as a reaction system. The phosphorylation was started by adding ATP, and the reaction was conducted at 25° C. for 2 hours, and then stopped by adding 21% perchloric acid on ice cooling. The reaction mixture was centrifuged at 12,000 rpm for 5 minutes and adsorbed on P81 paper (Whatmann), and then the paper was washed four times with 75 mM phosphoric acid, three times with water and once with acetone. The paper was dried, and the residual radioactivity was measured using a liquid scintillation counter.
# T1 sequence (A0A3Q1MT31 1-419): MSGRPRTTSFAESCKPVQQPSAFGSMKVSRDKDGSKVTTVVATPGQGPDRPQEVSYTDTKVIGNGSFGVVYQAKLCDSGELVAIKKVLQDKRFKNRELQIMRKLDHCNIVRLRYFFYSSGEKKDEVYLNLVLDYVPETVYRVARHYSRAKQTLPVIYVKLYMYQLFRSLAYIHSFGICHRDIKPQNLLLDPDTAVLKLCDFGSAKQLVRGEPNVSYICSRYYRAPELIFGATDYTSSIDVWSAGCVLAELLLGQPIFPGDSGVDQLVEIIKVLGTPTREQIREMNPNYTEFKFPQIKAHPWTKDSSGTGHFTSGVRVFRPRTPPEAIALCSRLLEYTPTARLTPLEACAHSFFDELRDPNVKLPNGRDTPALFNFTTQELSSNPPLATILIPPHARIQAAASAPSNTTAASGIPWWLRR
row,SMILES,IC50 [nM]
1,Cn1c(N2CCC(C(=O)c3ccccc3-c3ccccc3)CC2)nc(-c2ccncc2)cc1=O [D023],13
2,Cn1c(N2CCO[C@@H](c3ccccc3F)C2)nc(-c2ccncc2)cc1=O [B037],4.8
3,COc1ccccc1[C@H]1CN(c2nc(-c3ccncc3)cc(=O)n2C)CCO1 [B085],1.4
4,Cc1ccccc1C1CN(c2nc(-c3ccncc3)cc(=O)n2C)CCO1 (centres unmarked) [B063],6
5,Cn1c(N2CCC(C(=O)n3ccc4ccccc43)CC2)nc(-c2ccncc2)cc1=O [D017],10
6,Cn1c(N2CCC(C(=O)c3ccc(F)cc3F)CC2)nc(-c2ccncc2)cc1=O [D012],19
7,Cn1c(N2CCOC(c3cccc(Br)c3)C2)nc(-c2ccncc2)cc1=O (centres unmarked) [B051],1.9
8,Cn1c(N2CCOC(c3ccc(F)cc3Br)C2)nc(-c2ccncc2)cc1=O (centres unmarked) [B100],4.7
9,COc1ccc(-c2cccnc2)cc1C1CN(c2nc(-c3ccncc3)cc(=O)n2C)CCO1 (centres unmarked) [B256],1.1
10,Cn1c(N2CCC(C(=O)c3cccc4ccccc34)CC2)nc(-c2ccncc2)cc1=O [D024],19
11,Cn1c(N2CCO[C@@H](c3c(F)cccc3F)C2)nc(-c2ccncc2)cc1=O [B110],8.2
12,"Cn1c(N2CCCC(C(=O)Nc3ccccc3)C2)nc(-c2ccncc2)cc1=O (centres unmarked) [C067, 1-(1-Methyl-6-oxo-4-pyridin-4-yl-1,6-dihydro-pyrimidine-2-yl)-piperidine-3-carboxanilide]",72
13,Cn1c(NCC(=O)c2cccc(Cl)c2)nc(-c2ccncc2)cc1=O [A006],13
14,Cn1c(NCC(=O)c2ccccc2F)nc(-c2ccncc2)cc1=O [A002],27
15,Cn1c(N2CCC(C(=O)c3ccc(-c4ccccc4)cc3)CC2)nc(-c2ccncc2)cc1=O [D022],7.8
16,Cn1c(N2CCOC(c3cccc(S(C)(=O)=O)c3)C2)nc(-c2ccncc2)cc1=O (centres unmarked) [B130],52.9
17,COc1cccc(OC)c1[C@H]1CN(c2nc(-c3ccncc3)cc(=O)n2C)CCO1 [B103],0.36
18,COc1cc(OC(C)C)ccc1C1CN(c2nc(-c3ccncc3)cc(=O)n2C)CCO1 (centres unmarked) [B261],1.3
19,COc1ccccc1C1CN(c2nc(-c3ccncc3)cc(=O)n2C)CCO1 (centres unmarked) [B084],1.1

row,SMILES,IC50 [nM]
1,"Cn1c(N2CCOC(c3cccc(N4CCCC4)c3)C2)nc(-c2ccncc2)cc1=O (single isomer, unassigned) [B289]",33
2,COc1cc(F)ccc1[C@@H]1CN(c2nc(-c3ccncc3)cc(=O)n2C)CCO1 [B285],8.9
3,COc1cc(F)ccc1C1CN(c2nc(-c3ccncc3)cc(=O)n2C)CCO1 (centres unmarked) [B091],1.2
4,Cn1c(N2CCOC(c3ccc(OCC4CC4)cc3)C2)nc(-c2ccncc2)cc1=O (centres unmarked) [B128],30
5,Cn1c(N2CCO[C@@H](c3ccccc3Cl)C2)nc(-c2ccncc2)cc1=O [B046],8.3
6,CCn1c(N2CCOC(c3c(OC)cccc3OC)C2)nc(-c2ccncc2)cc1=O (centres unmarked) [B263],1.2
7,COc1cc(-c2ccccc2F)ccc1C1CN(c2nc(-c3ccncc3)cc(=O)n2C)CCO1 (centres unmarked) [B290],2
8,Cn1c(N2CCC(C(=O)N3CCc4ccccc43)CC2)nc(-c2ccncc2)cc1=O [D019],8.1
9,COc1cccc(C(=O)C2CCN(c3nc(-c4ccncc4)cc(=O)n3C)CC2)c1OC [D011],11
10,Cn1c(N2CCC(C(=O)c3ccc(F)c(F)c3)CC2)nc(-c2ccncc2)cc1=O [D013],19
11,"Cn1c(N2CCCC(C(=O)c3ccccc3)C2)nc(-c2ccncc2)cc1=O (centres unmarked) [C001, 2-(3-Benzoylpiperidin-1-yl)-3-methyl-6-pyridin-4-yl-3H-pyrimidin-4-one]",2.1
12,Cn1c(N2CCOC(c3ccc(F)cc3Cl)C2)nc(-c2ccncc2)cc1=O (centres unmarked) [B253],15
13,Cn1c(N2CCC(C(=O)c3ccc(F)cc3)CC2)nc(-c2ccncc2)cc1=O [D004],15
14,CC(C)Oc1ccc(C2CN(c3nc(-c4ccncc4)cc(=O)n3C)CCO2)cc1 (centres unmarked) [B122],63
15,"Cn1c(N2CCOC(C(=O)c3ccccc3)C2)nc(-c2ccncc2)cc1=O (single isomer, unassigned) [C390]",1
16,"Cn1c(N2CCC(C(=O)c3ccccc3)CC2)nc(-c2ccncc2)cc1=O [D001, 2-(4-benzoylpiperidin-1-yl)-3-methyl-6-pyridin-4-yl-3H-pyrimidin-4-one]",9
17,"COc1ccc([C@H]2CN(c3nc(-c4ccncc4)cc(=O)n3C)CCO2)cc1 [B079, (S)-2-[2-(4-Methoxyphenyl)morpholin-4-yl]-3-methyl-6-pyridin-4-yl-3H-pyrimidin-4-one]",3.3
18,"Cn1c(N2CCOC(C(=O)c3ccccc3)C2)nc(-c2ccncc2)cc1=O (centres unmarked) [C101, 2-(2-benzoylmorpholin-4-yl)-3-methyl-6-pyridin-4-yl-3H-pyrimidin-4-one]",3.5
19,"Cn1c(N2CCC(C(=O)c3ccc(Cl)cc3)CC2)nc(-c2ccncc2)cc1=O [D009, 2-[4-(4-Chlorobenzoyl)piperidin-1-yl]-3-methyl-6-pyridin-4-yl-3H-pyrimidin-4-one]",6

row,SMILES,IC50 [nM]
1,Cn1c(N2CCC(C(=O)c3ccc(Cl)s3)CC2)nc(-c2ccncc2)cc1=O [D021],11
2,Cn1c(N2CCO[C@H](c3c(Cl)cccc3Cl)C2)nc(-c2ccncc2)cc1=O [B107],50
3,Cn1c(N2CCC(C(=O)c3cccs3)CC2)nc(-c2ccncc2)cc1=O [D014],20
4,"Cn1c(N2CCOC(c3cccc(N4CCCC4)c3)C2)nc(-c2ccncc2)cc1=O (single isomer, unassigned) [B288]",40
5,"Cn1c(N2CCOC(C(=O)c3ccccc3)C2)nc(-c2ccncc2)cc1=O (single isomer, unassigned) [C389]",34
6,Cn1c(N2CCOC(c3cc(F)c(F)cc3Cl)C2)nc(-c2ccncc2)cc1=O (centres unmarked) [B097],2.8
7,COc1ccc(C(=O)C2CCN(c3nc(-c4ccncc4)cc(=O)n3C)CC2)cc1 [D007],18
8,CCOc1ccccc1C1CN(c2nc(-c3ccncc3)cc(=O)n2C)CCO1 (centres unmarked) [B087],5
9,Cn1c(N2CCOC(c3ccc(N4CCCC4)cc3)C2)nc(-c2ccncc2)cc1=O (centres unmarked) [B140],8
10,Cn1c(N2CCO[C@@H](c3c(Cl)cccc3Cl)C2)nc(-c2ccncc2)cc1=O [B106],1.4
11,Cn1c(N2CCC(C(=O)c3ccccc3F)CC2)nc(-c2ccncc2)cc1=O [D002],23
12,Cn1c(N2CCOC(c3ccc(F)c(F)c3)C2)nc(-c2ccncc2)cc1=O (centres unmarked) [B257],67
13,COc1cc(F)ccc1C(=O)C1CCN(c2nc(-c3ccncc3)cc(=O)n2C)CC1 [D025],16
14,COc1ccc(-c2cccc(CN3CCCC3)c2)cc1C1CN(c2nc(-c3ccncc3)cc(=O)n2C)CCO1 (centres unmarked) [B287],0.57
15,Cn1c(N2CCOC(c3ccccc3Br)C2)nc(-c2ccncc2)cc1=O (centres unmarked) [B054],4
16,Cn1c(N2CCOC(CCc3ccccc3)C2)nc(-c2ccncc2)cc1=O (centres unmarked) [B010],6
17,"Cn1c(NCC(=O)c2ccccc2)nc(-c2ccncc2)cc1=O [A001, 3-methyl-2-(2-oxo-2-phenylethylamino)-6-pyridin-4-yl-3H-pyrimidin-4-one]",8.9
18,Cn1c(N2CCC(C(=O)N3CCCc4ccccc43)CC2)nc(-c2ccncc2)cc1=O [D018],4.3
